In patent US7498343B2, “Mycobacterial inhibitors” (priority 2002, dated 2009):
Values after ≈ are worked out from the molar mass of the structure shown. Like-named read-outs stand apart in the source and are kept apart here.

Experiments:
[1] = tested on: Mycobacterium tuberculosis (strain H37RV); assay: In-vitro method for testing compounds against M. tuberculosis (resazurin growth inhibition, MIC); assay type: cell-based; details: MIC data representing IC90's, 7 days incubation, resazurin fluorescence
M. Smegmatis ATCC607 = assay: In-vitro method for testing compounds for anti-bacterial activity against strain M. smegmatis ATCC607 (Alamar Blue growth inhibition); assay type: cell-based; details: M. smegmatis ATCC607, pIC50 = -logIC50, IC50 in M, 50% inhibitory concentration for bacterial growth, 48 hours incubation
Outline: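 About 250 CFU/well M. smegmatis ATCC607 in Mueller-Hinton broth exposed to five-fold serial compound dilutions, 48 h at 37 °C, humidified 5% CO2. Growth read by Alamar Blue fluorescence (ex 530/em 590 nm) after 2 h further incubation; % growth inhibition calculated.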

[2] = Mycobacterium tuberculosis, H37RV, 168 h, read-out: MIC

SMILES | MIC [1] [microgram/ml] | pIC50 (M. Smegmatis ATCC607) | MIC [1, 2] [µg/mL] | IC50 (M. Smegmatis ATCC607; Mycolicibacterium smegmatis, ATCC607, 48 h, read-out: pIC50 (converted)) [nM]
COc1nc2cc(C)c(Br)cc2cc1C(c1ccccc1)C(O)(CCN(C)C)c1cccc2ccccc12 (single isomer, unassigned) [Compound 226] | 9.03 | 5.5 | – | –
COc1nc2ccc(Br)cc2cc1C(c1ccccc1)C(O)(CCN1CCN(C)CC1)c1ccc2cc(Br)ccc2c1 (single isomer, unassigned) [Compound 154] | 68.95 | 4.9 | – | –
COCCOc1nc2ccc(Br)cc2cc1C(c1ccccc1)C(O)(CCN(C)C)c1cccc2ccccc12 (single isomer, unassigned) [Compound 176] | 9.50 | 6.8 | – | –
COCCOc1nc2ccc(Br)cc2cc1C(c1ccccc1)C(O)(CCN(C)C)c1cccc(F)c1 (single isomer, unassigned) [Compound 164] | 0.36 | 7.9 | – | –
COc1nc2ccc(Br)cc2cc1C(c1ccccc1)C(O)(CCn1cncn1)c1ccccc1 (racemic) [Compound 54] | 52.94 | 4.1 | – | –
COc1nc2ccccc2cc1C(c1ccccc1)C(O)(CCN(C)C)c1ccccc1 (single isomer, unassigned) [Compound 40] | 21.38 | 4.7 | – | –
COc1nc2ccc(Br)cc2cc1C(c1ccccc1)C(O)(CCN1CCN(C)CC1)c1cccc2ccccc12 (single isomer, unassigned) [Compound 156] | 9.68 | 5.3 | – | –
COc1nc2ccc(-c3cc4ccccc4s3)cc2cc1C(c1ccccc1)C(O)(CCN(C)C)c1cccc(F)c1 (single isomer, unassigned) [Compound 203] | 1.15 | 8.0 | – | –
CCN(C)CCC(O)(c1cccc2ccccc12)C(c1ccccc1)c1cc2cc(Br)ccc2nc1OC (stereo not shown) [Compound 148] | 56.96 | 4.9 | – | –
CSc1nc2ccc(Br)cc2cc1C(c1ccccc1)C(O)(CCN(C)C)c1ccccc1 (single isomer, unassigned) [Compound 33] | 8.27 | 6.0 | – | –
COc1nc2ccc(Br)cc2cc1C(c1ccccc1)C(O)(CCCN1CCOCC1)c1ccc2ccccc2c1 (single isomer, unassigned) [Compound 198] | 61.16 | 4.3 | – | –
COc1nc2ccc(Br)cc2cc1C(c1ccccc1)C(O)(CCN(C)C)c1ccc(F)c(F)c1 (racemic) [Compound 195] | 6.82 | 6.5 | – | –
COc1nc2ccc(Br)cc2cc1C(c1ccccc1)C(O)(CCN(C)C)c1ccc(F)cc1 (single isomer, unassigned) [Compound 181] | 8.30 | 6.9 | – | –
COc1ccc2nc(OC)c(C(c3ccccc3)C(O)(CCN(C)C)c3cccc4ccccc34)cc2c1 (single isomer, unassigned) [Compound 97] | 20.17 | 5.9 | – | –
COc1nc2ccc(Br)cc2cc1C(c1ccccc1)C(O)(CCN(C)C)c1ccccc1F (racemic) [Compound 70] | 52.35 | 5.8 | – | –
COc1nc2ccc(Br)cc2cc1C(c1ccccc1)C(O)(CCN1CCCC1)c1ccc2cc(Br)ccc2c1 (single isomer, unassigned) [Compound 157] | 52.46 | 5.6 | – | –
COc1nc2ccc(Br)cc2cc1C(c1ccccc1)C(O)(CCN(C)C)c1ccsc1 (single isomer, unassigned) [Compound 24] | 1.62 | 7.2 | – | –
COc1nc2ccc(Br)cc2cc1C(c1ccccc1)C(O)(CCN1CCOCC1)c1cccc2ccccc12 (single isomer, unassigned) [Compound 158] | 59.76 | 5.3 | – | –
COc1nc2cc(C)c(Br)cc2cc1C(c1ccccc1)C(O)(CCN(C)C)c1cccc(F)c1 (single isomer, unassigned) [Compound 216] | 0.85 | 8.0 | – | –
CCN(C)CCC(O)(c1ccc2ccccc2c1)C(c1ccccc1)c1cc2cc(Br)ccc2nc1OC (stereo not shown) [Compound 141] | – | 7.3 | 9.03 (≈ 15.9 µM) | –
COc1nc2ccc(Br)cc2cc1C(c1ccccc1)C(O)(CCCN(C)C)c1cccc2ccccc12 (single isomer, unassigned) [Compound 199] | 47.47 | 6.5 | – | –
COc1nc2ccc(Cl)cc2cc1C(c1ccccc1)C(O)(CCN(C)C)c1ccccc1 (single isomer, unassigned) [Compound 31] | 7.31 | 5.8 | – | –
COc1nc2ccc(Br)cc2cc1C(c1ccccc1)C(O)(CC[N+](C)(C)C)c1ccccc1.[I-] (racemic) [Compound 57] | 25.77 | 5.4 | – | –
COc1nc2ccc(Br)cc2cc1C(c1ccccc1)C(O)(CCn1cncn1)c1ccccc1 (racemic) [Compound 53] | 52.94 | 5.1 | – | –

SMILES | MIC [1] [microgram/ml] | pIC50 (M. Smegmatis ATCC607) | MIC [1, 2] [µg/mL] | IC50 (M. Smegmatis ATCC607; Mycolicibacterium smegmatis, ATCC607, 48 h, read-out: pIC50 (converted)) [nM]
COc1nc2ccc(Br)cc2cc1C(c1ccccc1)C(O)(CCN(C)C)c1ccc2ccccc2c1 (racemic) [Compound 45] | 1.76 | 8.0 | – | –
COc1nc2ccc(Br)cc2cc1C(c1ccccc1)C(O)(CCN1CCN(C)CC1)c1ccc2ccccc2c1 (racemic) [Compound 136] | 16.81 | 6.2 | – | –
COc1nc2ccc(Br)cc2cc1C(c1ccccc1)C(O)(CCN(C)C)c1cc(F)cc(F)c1 (stereo not shown) [Compound 116] | 8.58 | 6.6 | – | –
COc1nc2ccc(Br)cc2cc1C(c1ccccc1)C(O)(CCN(C)C)c1ccsc1 (single isomer, unassigned) [Compound 25] | 20.36 | 5.2 | – | –
COc1nc2ccc(Br)cc2cc1C(c1ccccc1)C(O)(CC[N+](C)(C)[O-])c1cccc2ccccc12 (racemic) [Compound 101] | 9.06 | 5.8 | – | –
COc1nc2ccc(Br)cc2cc1C(c1ccccc1)C(O)(CCN1CCN(C)CC1)c1ccc2cc(Br)ccc2c1 (single isomer, unassigned) [Compound 153] | 54.77 | 5.3 | – | –
COc1nc2ccc(Br)cc2cc1C(c1ccccc1)C(O)(CCN(C)C)c1ccc(N2CCOCC2)cc1 (racemic) [Compound 90] | 59.06 | 5.3 | – | –
COc1nc2ccc(Br)cc2cc1C(c1ccccc1)C(O)(CCN(C)C)c1cccc(C(F)(F)F)c1 (single isomer, unassigned) [Compound 183] | 0.36 | 8.3 | – | –
COc1nc2ccc(Br)cc2cc1C(c1ccccc1)C(O)(CCN(C)C)c1ccc2ccccc2c1 (racemic) [Compound 46] | 1.76 | 6.4 | – | –
COc1nc2ccc(Br)cc2cc1C(c1ccccc1)C(O)(CCc1ccccc1)CCN(C)C (racemic) [Compound 95] | 16.87 | 6.9 | – | –
COc1nc2ccc(Br)cc2cc1C(c1ccc(F)cc1)C(O)(CCN(C)C)c1cccc2ccccc12 (racemic) [Compound 205] | 4.56 | 7.2 | – | –
COc1nc2ccc(Br)cc2cc1C(c1ccccc1)C(O)(CCn1ccnc1)c1ccccc1 (stereo not shown) [Compound 50] | 52.85 | 5.0 | – | –
COc1nc2ccc(Br)cc2cc1C(c1ccccc1)C(O)(CCN(C)C)c1ccccc1F (racemic) [Compound 69] | 0.13 | 8.5 | – | –
COc1nc2ccc(Br)cc2cc1C(c1ccccc1)C(O)(CCN(C)C)c1ccc2c(Br)cccc2c1 (single isomer, unassigned) [Compound 127] | 25.26 | 6.9 | – | –
COc1nc2ccc(Br)cc2cc1C(c1ccccc1)C(O)(CCN(C)C)c1ccc2c3c(cccc13)CC2 (single isomer, unassigned) [Compound 122] | 58.16 | 4.8 | – | –
COc1nc2ccc(Br)cc2cc1C(c1ccc(Cl)cc1)C(O)(CCN(C)C)c1ccccc1 (single isomer, unassigned) [Compound 36] | 5.40 | 6.4 | – | –
COc1nc2ccccc2cc1C(c1ccccc1)C(O)(CCN(C)C)c1cccc(F)c1 (racemic) [Compound 93] | 35.31 | 4.8 | – | –
COc1nc2ccc(C)cc2cc1C(c1ccccc1)C(O)(CCN(C)C)c1cccc2ccccc12 (racemic) [Compound 82] | 3.90 | 7.1 | – | –
COc1nc2ccc(Br)cc2cc1C(c1ccccc1)C(O)(CCCCN(C)C)c1cccc2ccccc12 (single isomer, unassigned) [Compound 197] | 9.25 | 6.6 | – | –
COc1nc2ccc(Br)cc2cc1C(c1ccccc1)C(O)(CCN(C)C)c1cc(F)ccc1F (stereo not shown) [Compound 111] | 1.71 | 6.4 | – | –
COc1nc2ccc(-c3ccccc3)cc2cc1C(c1ccccc1)C(O)(CCN(C)C)c1cccc2ccccc12 (racemic) [Compound 84] | 8.76 | 7.0 | – | –
COc1nc2ccc(Cl)cc2cc1C(c1ccccc1)C(O)(CCN(C)C)c1cccc2ccccc12 (single isomer, unassigned) [Compound 119] | 10.20 | 7.8 | – | –
CCN(CC)CCC(O)(c1ccccc1)C(c1ccccc1)c1cc2cc(Br)ccc2nc1OC (stereo not shown) [Compound 18] | – | – | 10.6 (≈ 19.9 µM) | 200
